The results in this text go back to patent publication US20090105252A1, “Pyrimidine Derivatives and Their Use in Therapy as well as the Use of Pyrimidine Derivatives in the Manufacture of a Medicament for Prevention and/or Treatment of Alzheimer's Disease” (AstraZeneca AB, priority 2005, published 2009).

Where a name gives a salt, the structure may show the parent alone.

T1 sequence (P49841 whole entry): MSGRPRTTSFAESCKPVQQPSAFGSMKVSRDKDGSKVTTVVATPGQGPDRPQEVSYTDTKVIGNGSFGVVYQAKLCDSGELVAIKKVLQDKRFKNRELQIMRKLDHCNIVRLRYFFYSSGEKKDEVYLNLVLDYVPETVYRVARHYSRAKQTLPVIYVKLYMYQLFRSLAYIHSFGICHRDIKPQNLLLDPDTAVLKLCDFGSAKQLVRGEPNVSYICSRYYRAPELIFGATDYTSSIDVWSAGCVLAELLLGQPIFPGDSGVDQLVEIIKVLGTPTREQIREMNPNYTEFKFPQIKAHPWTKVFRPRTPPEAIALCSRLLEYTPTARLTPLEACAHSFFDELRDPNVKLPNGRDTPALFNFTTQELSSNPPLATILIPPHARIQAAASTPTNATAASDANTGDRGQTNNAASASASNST

The experiment addresses T1, recombinant human GSK3β (Homo sapiens, UniProt P49841).
T1 construct: purchased Dundee University, UK
Description: GSK3β Scintillation Proximity Assay (ATP competition). It is filed as biochemical. The following applies: inhibition constant from ATP competition, 10 inhibitor concentrations in duplicate; ATP 1 μM; Km of ATP 20 μM. The procedure:
Determination of ATP competition in Scintillation Proximity GSK3β Assay.
GSK3β Scintillation Proximity Assay.
The competition experiments were carried out in duplicate with 10 different concentrations of the inhibitors in clear-bottom microtiter plates (Wallac, Finland). A biotinylated peptide substrate, Biotin-Ala-Ala-Glu-Glu-Leu-Asp-Ser-Arg-Ala-Gly-Ser(PO3H2)-Pro-Gln-Leu (AstraZeneca, Lund), was added at a final concentration of 1 μM in an assay buffer containing 1 mU recombinant human GSK3β (Dundee University, UK), 12 mM morpholinepropanesulfonic acid (MOPS), pH 7.0, 0.3 mM EDTA, 0.01% β-mercaptorethanol, 0.004% Brij 35 (a […] detergent), 0.5% glycerol and 0.5 μg BSA/25 μl. The reaction was initiated by the addition of 0.04 μCi [γ-^33P]ATP (Amersham, UK) and unlabelled ATP at a final concentration of 1 μM and assay volume of 25 μl. After incubation for 20 minutes at room temperature, each reaction was terminated by the addition of 25 μl stop solution containing 5 mM EDTA, 50 μM ATP, 0.1% Triton X-100 and 0.25 mg streptavidin coated Scintillation Proximity Assay (SPA) beads (Amersham, UK). After 6 hours the radioactivity was determined in a liquid scintillation counter (1450 MicroBeta Trilux, Wallac). The inhibition curves were analysed by non-linear regression using GraphPad Prism, USA. The Km value of ATP for GSK30, used to calculate the inhibition constants (Ki) of the various compounds, was 20 μM.
In general terms: Scintillation proximity formats need no separation of bound from free tracer.
What is called Ki is the equilibrium dissociation constant of an inhibitor or competing ligand from its target. Regarding `COc1cc(Nc2ncc(F)c(-c3cnc(C)n3C)n2)cc(C(F)(F)F)c1` [Example 1, 4-(1,2-Dimethyl-1H-imidazol-5-yl)-5-fluoro-N-[3-methoxy-5-(trifluoromethyl)phenyl]pyrimidin-2-amine], the Ki is 10 nM.
`Cc1ncc(-c2nc(Nc3ccc(C(=O)N4CCN(C)CC4)cc3)ncc2F)n1C1CCCCC1` [Example 17, 4-(1-Cyclohexyl-2-methyl-1H-imidazol-5-yl)-5-fluoro-N-{4-[(4-methylpiperazin-1-yl)carbonyl]phenyl}pyrimidin-2-amine hydrochloride]: the Ki worked out at 14 nM.
For `Cc1ncc(-c2nc(Nc3cccc(S(C)(=O)=O)c3)ncc2F)n1C1CCOCC1` [Example 22, 5-Fluoro-N-[3-(methylsulfonyl)phenyl]-4-[2-methyl-1-(tetrahydro-2H-pyran-4-yl)-1H-imidazol-5-yl]pyrimidin-2-amine hydrochloride], the Ki is 22 nM.
As to `Cc1ncc(-c2nc(Nc3ccc(CN4CCN(C)CC4)cc3)ncc2F)n1C` [Example 29, 4-(1,2-Dimethyl-1H-imidazol-5-yl)-5-fluoro-N-{4-[(4-methylpiperazin-1-yl)methyl]phenyl}pyrimidin-2-amine hydrochloride], the Ki came to 126 nM.
